Literature values, collected in paper PMC5348030 (Nature chemical biology, 2016).

System: HIV integrase

## Cc1nnc(C(=O)NC(C)(C)c2nc(C(=O)NCc3ccc(F)cc3)c(O)c(=O)n2C)o1 [raltegravir]
  residence time on its target: 4.8 min
